The text below walks through data of article PMC7139940, “Comparative Analysis of High-Throughput Assays of Family-1 Plant Glycosyltransferases” (International Journal of Molecular Sciences, 2020).

The first test relates to T1, UGT72B27.
T1 construct: recombinant GST fusion (pGEX-4T-1) from E. coli BL21(DE3) pLysS, purified on GST resin
The experiment in a line: UDP-Glo luminescent UDP release assay, 384-well. Type of test: biochemical, Vitis vinifera. The conditions noted are these: 100 µM UDP-glucose, 50 mM Tris/HCl pH 7.5, 30 °C, 10 min, heat stop; poorly soluble, high DMSO; read-out: b. UDP-Glo^TM Assay / KM. An excerpt:
UDP-Glo luminescent UDP release assay, 384-well on UGT72B27
Take `Oc1ccc(/C=C/c2cc(O)cc(O)c2)cc1` [trans-Resveratrol]: the Km was determined as 21 ± 5 µM.

The test is the same for the next values; noted with them: 100 µM UDP-glucose, 50 mM Tris/HCl pH 7.5, 30 °C, 10 min, heat stop; read-out: b. UDP-Glo^TM Assay / KM.
Consider `COc1cc(C)cc(OC)c1O` [MDMP, 4-Methyl-2,6-dimethoxyphenol], for which the Km was found to be 173 ± 28 µM. Consider `Cc1ccc(C(C)C)c(O)c1` [Thymol], for which the Km was 28 ± 7 µM.

Regarding `Oc1cc(O)cc(O)c1` [Phloroglucinol], the Km worked out at 35 ± 4 µM.

For the compound `COc1ccccc1O` [Guaiacol, 2-Methoxyphenol], the Km worked out at 23 ± 1 µM. Same read-out and setting: the value for `COc1cccc(OC)c1O` [DMP, 2,6-Dimethoxyphenol] was 23 ± 3 µM; that for `CC1=C(O)C(=O)C(C)O1` (centres unmarked) [Furaneol] was 453 ± 35 µM. For the compound `Oc1ccccc1` [Phenol], the Km was found to be 153 ± 24 µM.

Regarding `COc1cc(C)ccc1O` [MMP, 2-Methoxy-4-methylphenol], the Km came to 41 ± 9 µM. The same measure, in the same setting: with `Cc1cccc(O)c1` [m-Cresol] the figure was 14 ± 3 µM.

`Cc1ccccc1O` [o-Cresol]: the Km came to 40 ± 5 µM.
